Data: US20260262643A1, “HERBICIDAL BENZOXAZINES” (FMC CORPORATION, priority 2022, published 2026)

What was measured:
blackgrass [1] = experiment: Test C preemergence; type: in vivo, Alopecurus myosuroides; details: 0 to 100 scale (0 no effect, 100 complete control)
In short: (§1)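 Soil-applied (pre) and foliar (post, 1–2 leaf, 2–10 cm) sprays; surfactant-containing non-phytotoxic solvent vehicle; loam/sand substrate. Readout: visual % control at 10 d, greenhouse, versus untreated.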

corn [2] = experiment: Test C preemergence; type: in vivo, Zea mays; details: 0 to 100 scale (0 no effect, 100 complete control)
In short: as §1

foxtail, giant [3] = experiment: Test C preemergence; type: in vivo, Setaria faberi; details: 0 to 100 scale (0 no effect, 100 complete control)
In short: as §1

goosegrass [4] = experiment: Test C preemergence; type: in vivo, Eleusine indica; details: 0 to 100 scale (0 no effect, 100 complete control)
From the text: (§2) Seeds of plant species selected from barnyardgrass (Echinochloa crusgalli), blackgrass (Alopecurus myosuroides), corn (Zea mays), foxtail, giant (giant foxtail, Setaria faberi), green foxtail (Setaria viridis), goosegrass (Eleusine indica), kochia (Bassia scoparia), oat, wild (wild oat, Avena fatua), pigweed, palmer (palmer amaranth, palmer pigweed, Amaranthus palmeri), Pigweed, Redroot (redroot pigweed, Amaranthus retroflexus), ragweed (common ragweed, Ambrosia artemisiifolia), ryegrass, Italian ([…] ryegrass, Lolium multiflorum), soybean (Glycine max), and wheat (Triticum aestivum) were planted into a blend of loam soil and sand and treated preemergence with a directed soil spray using test chemicals formulated in a non-phytotoxic solvent mixture which included a surfactant. At the same time, plants selected from these crops and weed species and also galium (catchweed bedstraw, Galium aparine) and horseweed (Erigeron canadensis) were planted in pots containing the same blend of loam soil and sand and treated with postemergence applications of test chemicals formulated in the same manner. Plants ranged in height from 2 to 10 cm and were in the one- to two-leaf stage for the postemergence treatment. Treated plants and untreated controls were maintained in a greenhouse for 10 days, after which time all treated plants were compared to untreated controls and visually evaluated for injury. Plant response ratings, summarized in Table C, are based on a 0 to 100 scale where 0 is no effect and 100 is complete control. A dash (-) response means no test result.

kochia [5] = experiment: Test C preemergence; type: in vivo, Bassia scoparia; details: 0 to 100 scale (0 no effect, 100 complete control)
In short: as §1

oat, wild [6] = experiment: Test C preemergence; type: in vivo, Avena fatua; details: 0 to 100 scale (0 no effect, 100 complete control)
In short: as §1

pigweed, palmer [7] = experiment: Test C preemergence; type: in vivo, Amaranthus palmeri; details: 0 to 100 scale (0 no effect, 100 complete control)
In short: as §1

ragweed [8] = experiment: Test C preemergence; type: in vivo, Ambrosia artemisiifolia; details: 0 to 100 scale (0 no effect, 100 complete control)
In short: as §1

ryegrass, Italian [9] = experiment: Test C preemergence; type: in vivo, Lolium multiflorum; details: 0 to 100 scale (0 no effect, 100 complete control)
In short: as §1

soybean [10] = experiment: Test C preemergence; type: in vivo, Glycine max; details: 0 to 100 scale (0 no effect, 100 complete control)
In short: as §1

wheat [11] = experiment: Test C preemergence; type: in vivo, Triticum aestivum; details: 0 to 100 scale (0 no effect, 100 complete control)
In short: as §1

blackgrass [12] = experiment: Test C postemergence; type: in vivo, Alopecurus myosuroides; details: 10 days
In short: as §1

corn [13] = experiment: Test C postemergence; type: in vivo, Zea mays; details: 10 days
In short: as §1

foxtail, giant [14] = experiment: Test C postemergence; type: in vivo, Setaria faberi; details: 10 days
In short: as §1

goosegrass [15] = experiment: Test C postemergence; type: in vivo, Eleusine indica; details: 10 days
From the text: as §2

kochia [16] = experiment: Test C postemergence; type: in vivo, Bassia scoparia; details: 10 days
In short: as §1

oat, wild [17] = experiment: Test C postemergence; type: in vivo, Avena fatua; details: 10 days
In short: as §1

pigweed, palmer [18] = experiment: Test C postemergence; type: in vivo, Amaranthus palmeri; details: 10 days
In short: as §1

ragweed [19] = experiment: Test C postemergence; type: in vivo, Ambrosia artemisiifolia; details: 10 days
In short: as §1

ryegrass, Italian [20] = experiment: Test C postemergence; type: in vivo, Lolium multiflorum; details: 10 days
In short: as §1

soybean [21] = experiment: Test C postemergence; type: in vivo, Glycine max; details: 10 days
In short: as §1

wheat [22] = experiment: Test C postemergence; type: in vivo, Triticum aestivum; details: 10 days
In short: as §1

galium = experiment: Test C postemergence; type: in vivo, Galium aparine; details: 10 days
In short: as §1

horseweed = experiment: Test C postemergence; type: in vivo, Erigeron canadensis; details: 10 days
In short: as §1

barnyardgrass = experiment: Test D flooded paddy test; type: in vivo, Echinochloa crus-galli; details: 250 g ai/ha, applied to paddy water, visual rating after 13 to 14 days, scale 0 to 100 (0 no effect, 100 complete control)
In short: (§3)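 Compounds go straight into paddy water over 2-leaf plants in pots flooded to 3 cm. Greenhouse holding lasts 13 to 14 days. Injury is scored by eye against controls from 0 (none) to 100 (complete control).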

ducksalad = experiment: Test D flooded paddy test; type: in vivo, Heteranthera limosa; details: 250 g ai/ha, applied to paddy water, visual rating after 13 to 14 days, scale 0 to 100 (0 no effect, 100 complete control)
In short: as §3

rice = experiment: Test D flooded paddy test; type: in vivo, Oryza sativa; details: 250 g ai/ha, applied to paddy water, visual rating after 13 to 14 days, scale 0 to 100 (0 no effect, 100 complete control)
In short: as §3

sedge, umbrella = experiment: Test D flooded paddy test; type: in vivo, Cyperus difformis; details: 250 g ai/ha, applied to paddy water, visual rating after 13 to 14 days, scale 0 to 100 (0 no effect, 100 complete control)
In short: as §3

[23] = Preemergence, 500 g ai/ha, visual rating after 10 days
[24] = Test C, preemergence, 125 g ai/ha
[25] = 125 g ai/ha, postemergence, 0 to 100 scale, 0 no effect, 100 complete control
[26] = Postemergence, 500 g ai/ha, visual 0 to 100 scale (0 no effect, 100 complete control)

Q: `Cc1cccc2c1OC(C)CN2C(=O)c1cccc(-n2ncnc2C2CC2)c1` (racemic) [Compound 196] was tested. Which “Plant response rating, Blackgrass” value (blackgrass [1]; [23]) did it give?
A: The value was 0.

Q: What about the “Blackgrass plant response rating” value (blackgrass [1]; [24]) of the same compound?
A: The value was 0.

Q: What about the “Plant response rating, Corn” value (corn [2]; [23]) of the same compound?
A: The value was 20.

Q: What about the “Corn plant response rating” value (corn [2]; [24]) of the same compound?
A: Its value is 0.

Q: And the “Plant response rating, Foxtail, Giant” value (foxtail, giant [3]; [23])?
A: The value was 0.

Q: What about the “Foxtail, Giant plant response rating” value (foxtail, giant [3]; [24]) of the same compound?
A: Its value is 0.

Q: What about the “Plant response rating, Goosegrass” value (goosegrass [4]; [23]) of the same compound?
A: The value was 0.

Q: And the “Goosegrass plant response rating” value (goosegrass [4]; [24])?
A: The value was 0.

Q: And the “Plant response rating, Kochia” value (kochia [5]; [23])?
A: The value was 0.

Q: And the “Kochia plant response rating” value (kochia [5]; [24])?
A: The value was 0.

Q: What about the “Plant response rating, Oat, Wild” value (oat, wild [6]; [23]) of the same compound?
A: The value was 0.

Q: What about the “Oat, Wild plant response rating” value (oat, wild [6]; [24]) of the same compound?
A: The value was 0.

Q: And the “Plant response rating, Pigweed, Palmer” value (pigweed, palmer [7]; [23])?
A: Its value is 0.

Q: What about the “Pigweed, Palmer plant response rating” value (pigweed, palmer [7]; [24]) of the same compound?
A: Its value is 0.

Q: What about the “Plant response rating, Ragweed” value (ragweed [8]; [23]) of the same compound?
A: Its value is 0.

Q: And the “Ragweed plant response rating” value (ragweed [8]; [24])?
A: The value was 0.

Q: What about the “Plant response rating, Ryegrass, Italian” value (ryegrass, Italian [9]; [23]) of the same compound?
A: The value was 0.

Q: And the “Ryegrass, Italian plant response rating” value (ryegrass, Italian [9]; [24])?
A: The value was 0.

Q: And the “Plant response rating, Soybean” value (soybean [10]; [23])?
A: Its value is 0.

Q: And the “Soybean plant response rating” value (soybean [10]; [24])?
A: The value was 0.

Q: And the “Plant response rating, Wheat” value (wheat [11]; [23])?
A: Its value is 0.

Q: And the “Wheat plant response rating” value (wheat [11]; [24])?
A: The value was 0.

Q: And the “Plant response rating, Blackgrass” value (blackgrass [12]; [25])?
A: Its value is 0.

Q: What about the “Plant response rating, Blackgrass” value (blackgrass [12]; [26]) of the same compound?
A: The value was 0.

Q: And the “Plant response rating, Corn” value (corn [13]; [25])?
A: The value was 0.

Q: And the “Plant response rating, Corn” value (corn [13]; [26])?
A: The value was 0.

Q: What about the “Plant response rating, Foxtail, Giant” value (foxtail, giant [14]; [25]) of the same compound?
A: The value was 0.

Q: What about the “Plant response rating, Foxtail, Giant” value (foxtail, giant [14]; [26]) of the same compound?
A: Its value is 0.

Q: And the “Plant response rating, Goosegrass” value (goosegrass [15]; [25])?
A: The value was 0.

Q: What about the “Plant response rating, Goosegrass” value (goosegrass [15]; [26]) of the same compound?
A: The value was 0.

Q: What about the “Plant response rating, Kochia” value (kochia [16]; [25]) of the same compound?
A: The value was 0.

Q: And the “Plant response rating, Kochia” value (kochia [16]; [26])?
A: Its value is 0.

Q: And the “Plant response rating, Oat, Wild” value (oat, wild [17]; [25])?
A: Its value is 0.

Q: And the “Plant response rating, Oat, Wild” value (oat, wild [17]; [26])?
A: The value was 0.

Q: And the “Plant response rating, Pigweed, Palmer” value (pigweed, palmer [18]; [25])?
A: Its value is 30.

Q: And the “Plant response rating, Pigweed, Palmer” value (pigweed, palmer [18]; [26])?
A: The value was 0.

Q: What about the “Plant response rating, Ragweed” value (ragweed [19]; [25]) of the same compound?
A: Its value is 0.

Q: And the “Plant response rating, Ragweed” value (ragweed [19]; [26])?
A: The value was 0.

Q: And the “Plant response rating, Ryegrass, Italian” value (ryegrass, Italian [20]; [25])?
A: The value was 0.

Q: What about the “Plant response rating, Ryegrass, Italian” value (ryegrass, Italian [20]; [26]) of the same compound?
A: Its value is 0.

Q: And the “Plant response rating, Soybean” value (soybean [21]; [25])?
A: The value was 0.

Q: What about the “Plant response rating, Soybean” value (soybean [21]; [26]) of the same compound?
A: The value was 0.

Q: And the “Plant response rating, Wheat” value (wheat [22]; [25])?
A: Its value is 0.

Q: And the “Plant response rating, Wheat” value (wheat [22]; [26])?
A: The value was 0.

Q: What about the “Plant response rating, Galium” value (galium; [25]) of the same compound?
A: The value was 0.

Q: And the “Plant response rating, Galium” value (galium; [26])?
A: Its value is 0.

Q: What about the “Plant response rating, Horseweed” value (horseweed; [25]) of the same compound?
A: The value was 0.

Q: And the “Plant response rating, Horseweed” value (horseweed; [26])?
A: The value was 0.

Q: And the “Plant response rating, Barnyardgrass (Flood)” value (barnyardgrass)?
A: Its value is 0.

Q: What about the “Plant response rating, Ducksalad (Flood)” value (ducksalad) of the same compound?
A: Its value is 0.

Q: What about the “Plant response rating, Rice (Flood)” value (rice) of the same compound?
A: The value was 0.

Q: And the “Plant response rating, Sedge, Umbrella (Flood)” value (sedge, umbrella)?
A: The value was 0.
